Read-outs that look alike come from different tables or passages of the source.
Experiments:
full-length human BTK = full-length human BTK (Homo sapiens (Human), UniProt Q06187); assay: BTK IC50 enzyme assay (microfluidic off-chip mobility shift kinase assay); type: biochemical; details: incubated for 90 min. at 27 C; read-out: Time Dependent BTK Enzyme Assay IC50
How it was run: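 Off-chip microfluidic mobility shift assay on full-length human BTK; substrate-to-product conversion measured by charge/mass separation of phosphorylated peptide after reaction stop.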

BTK = BTK (Homo sapiens (Human), UniProt Q06187); assay: Time Dependent Human Whole Blood IC50 assay; type: cell-based
Protocol: Compounds described by embodiments of the present invention were assayed using a human whole blood assay. The data from the same is recorded in Table 2 within the column labeled: “Time Dependent Human Whole Blood BTK Enzyme Assay IC50”.

PBMC = assay: Time Dependent PBMC IC50 assay; type: cell-based
Protocol: Compounds described by embodiments of the present invention were assayed using a time dependent PMBC assay.

NZB/W F1 mice = assay: Interferon-alpha accelerated systemic lupus erythematosus (SLE) mouse model; type: in vivo; details: oral, daily from day 14, 0.1, 0.3, 1, or 3 mg/kg; NZB/W F1 mice with ADV-IFN-α
Protocol: 1-(4-(((6-amino-5-(4-phenoxyphenyl)pyrimidin-4-yl)amino)methyl)piperidin-1-yl)prop-2-en-1-one, designated as “CPD. B”, was evaluated in an interferon-alpha accelerated SLE mouse model. NZB/W F1 mice received i.v. injection at day 0 and day 1 of 10^8 infectious units of adenovirus (ADV-IFN-α) to deliver a transient overexpression on interferon alpha. Oral dosing of the different group treatments was initiated on day 14 and continued daily at 24 hour intervals until the end of the study. Treatment groups consisted of 20% Kleptose HPB in Na-citrate buffer (vehicle) or 0.1, 0.3, 1, or 3 mg/kg of Cpd. […] As shown in Panel 1B Cpd. […] FIG. 2 presents data from another interferon-alpha accelerated SLE experiment in mice. NZB/W F1 mice received i.v. injections at day 0 and day 1 of 10^8 infectious units of adenovirus (ADV-IFN-α) to deliver a transient overexpression on interferon alpha. Oral dosing of the different group treatments (n=10) was initiated on day 14 and continued daily at 24 hour intervals until the end of the study. Treatment groups consisted of 20% Kleptose HPB in Na-citrate buffer (vehicle), 0.1, 0.3, 1, or 3 mg/kg of Cpd. B or Cell Cept®. […] Statistical analysis was performed using Two way ANOVA with Bonferroni post test with all groups compared to vehicle treated group (*=p<0.05, **=p<0.01, ***=p<0.001).

[1] = human whole blood, read-out: Time Dependent Human Whole Blood BTK Enzyme Assay IC50

Sequence of BTK (Q06187 whole entry): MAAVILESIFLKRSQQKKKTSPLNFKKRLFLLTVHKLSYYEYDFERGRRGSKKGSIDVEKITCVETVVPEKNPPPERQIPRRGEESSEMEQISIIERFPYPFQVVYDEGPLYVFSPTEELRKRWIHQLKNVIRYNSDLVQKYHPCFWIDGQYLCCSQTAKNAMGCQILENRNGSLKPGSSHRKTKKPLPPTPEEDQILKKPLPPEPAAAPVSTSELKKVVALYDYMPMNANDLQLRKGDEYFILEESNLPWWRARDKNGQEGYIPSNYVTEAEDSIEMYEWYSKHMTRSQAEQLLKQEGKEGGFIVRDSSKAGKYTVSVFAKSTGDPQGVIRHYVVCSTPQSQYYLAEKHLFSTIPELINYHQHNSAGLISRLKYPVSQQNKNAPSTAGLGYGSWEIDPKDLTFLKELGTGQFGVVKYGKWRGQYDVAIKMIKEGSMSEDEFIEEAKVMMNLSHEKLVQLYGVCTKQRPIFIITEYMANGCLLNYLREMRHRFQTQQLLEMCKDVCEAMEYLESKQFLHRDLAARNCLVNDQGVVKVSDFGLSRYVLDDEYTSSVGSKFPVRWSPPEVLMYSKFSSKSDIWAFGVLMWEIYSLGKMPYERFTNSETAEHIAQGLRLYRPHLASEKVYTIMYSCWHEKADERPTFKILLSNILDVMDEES
Sequence of full-length human BTK (Q06187 whole entry): as above

`C=CC(=O)Nc1cccc(Nc2ncnc(N)c2-c2ccc(Oc3ccccc3)cc2)c1` [A3, N-(3-((6-amino-5-(4-phenoxyphenyl)pyrimidin-4-yl)amino)phenyl)acrylamide] was tested. Which IC50 (full-length human BTK) did it give?
The IC50 was less than 100 nM.

And the IC50 (BTK; [1])?
Its IC50 is less than 1000 nM.

And the IC50 (PBMC)?
Its IC50 is less than 1000 nM.

`C=CC(=O)Nc1ccc(F)c(Oc2ncnc(N)c2-c2ccc(Oc3ccccc3)cc2)c1` [A246, N-(3-((6-amino-5-(4-phenoxyphenyl)pyrimidin-4-yl)oxy)-4-fluorophenyl)acrylamide] was tested. Which IC50 (full-length human BTK) did it give?
The IC50 was less than 100 nM.

And the IC50 (BTK; [1])?
Its IC50 is less than 1000 nM.

What about the IC50 (PBMC) of the same compound?
The IC50 was less than 1000 nM.

`C=CC(=O)N1CC2(CC(Oc3ncnc(N)c3-c3ccc(Oc4ccccc4)cc3)C2)C1` [A120, 1-(6-((6-amino-5-(4-phenoxyphenyl)pyrimidin-4-yl)oxy)-2-azaspiro[3.3]heptan-2-yl) prop-2-en-1-one] was tested. Which IC50 (full-length human BTK) did it give?
The IC50 was less than 100 nM.

And the IC50 (BTK; [1])?
The IC50 was less than 1000 nM.

And the IC50 (PBMC)?
The IC50 was less than 1000 nM.

For `C=CC(=O)N1CCC(CNc2ncnc(N)c2-c2ccc(Oc3ccccc3)cc2)CC1` [Cpd. B, 1-(4-(((6-amino-5-(4-phenoxyphenyl)pyrimidin-4-yl)amino)methyl)piperidin-1-yl)prop-2-en-1-one], which disease activity (NZB/W F1 mice) is on record?
The disease activity was “reduces the disease activity in a dose-dependent manner”.

For `C=CC(=O)Nc1cccc(Oc2ncnc(N)c2-c2cnn(Cc3ccccc3)c2)c1` [A172, N-(3-((6-amino-5-(1-benzyl-1H-pyrazol-4-yl)pyrimidin-4-yl)oxy)phenyl)acrylamide], which IC50 (full-length human BTK) is on record?
The IC50 was less than 100 nM.

And the IC50 (BTK; [1])?
Its IC50 is less than 1000 nM.

What about the IC50 (PBMC) of the same compound?
Its IC50 is less than 1000 nM.

Which results are given for `C=CC(=O)N1C2CCC1CC(CNc1ncnc(N)c1-c1ccc(Oc3ccccc3)cc1)C2` (stereo not shown) [A48, 1-(3-(((6-amino-5-(4-phenoxyphenyl)pyrimidin-4-yl)amino)methyl)-8-azabicyclo[3.2.1]octan-8-yl)prop-2-en-1-one]?
IC50 (full-length human BTK): < 100 nM; IC50 (BTK): > 1000 nM

With `C=CC(=O)Nc1cc(Oc2ncnc(N)c2-c2ccc(Oc3ccccc3)cc2)c(F)cc1F` [A251, N-(5-((6-amino-5-(4-phenoxyphenyl)pyrimidin-4-yl)oxy)-2,4-difluorophenyl)acrylamide] as the compound, how does the IC50 (full-length human BTK) read?
Its IC50 is less than 100 nM.

And the IC50 (BTK; [1])?
The IC50 was less than 1000 nM.

And the IC50 (PBMC)?
The IC50 was less than 1000 nM.

How did the IC50 (full-length human BTK) turn out when `C=CC(=O)N[C@H]1C[C@H](Nc2ncnc(N)c2-c2ccc(Oc3ccccc3)cc2)C1` [A117, N-(1,3-trans-3-((6-amino-5-(4-phenoxyphenyl)pyrimidin-4-yl)amino)cyclobutyl)acrylamide] was run?
Its IC50 is less than 100 nM.

What about the IC50 (PBMC) of the same compound?
The IC50 was less than 1000 nM.

What does the source list for `C=CC(=O)Nc1cccc(-c2cnc(N)nc2Oc2ccc(Oc3ccccc3)cc2)c1` [A306, N-(3-(2-amino-4-(4-phenoxyphenoxy)pyrimidin-5-yl)phenyl)acrylamide]?
IC50 (full-length human BTK): < 100 nM; IC50 (PBMC): < 1000 nM

With `C=CC(=O)N[C@H]1C[C@@H](Nc2ncnc(N)c2-c2ccc(Oc3ccccc3)cc2)C1` [A118] as the compound, how does the IC50 (full-length human BTK) read?
Its IC50 is less than 100 nM.

And the IC50 (PBMC)?
Its IC50 is less than 1000 nM.

Which results are given for `C=CC(=O)N1CC2(CC(Oc3ncnc(N)c3-c3cnn(Cc4ccccc4)c3)C2)C1` [A106, 1-(6-((6-amino-5-(1-benzyl-1H-pyrazol-4-yl)pyrimidin-4-yl)oxy)-2-azaspiro[3.3]heptan-2-yl)prop-2-en-1-one]?
IC50 (full-length human BTK): < 100 nM; IC50 (PBMC): > 1000 nM

What does the source list for `CC#CC(=O)N1CCC(CNc2ncnc(N)c2-c2ccc(Oc3ccccc3)cc2)CC1` [A336, 1-(4-(((6-amino-5-(4-phenoxyphenyl)pyrimidin-4-yl)amino)methyl)piperidin-1-yl)but-2-yn-1-one]?
IC50 (full-length human BTK): < 100 nM; IC50 (PBMC): < 1000 nM

With `C=CC(=O)N1CCC(CNc2ncnc(N)c2-c2ccc(Oc3ccccc3)nc2)CC1` [A168, 1-(4-(((6-amino-5-(6-phenoxypyridin-3-yl)pyrimidin-4-yl)amino)methyl)piperidin-1-yl)prop-2-en-1-one] as the compound, how does the IC50 (full-length human BTK) read?
Its IC50 is greater than 1000 nM.

And the IC50 (PBMC)?
The IC50 was greater than 1000 nM.

With `CN(C)C/C=C/C(=O)Nc1cccc(Oc2ncnc(N)c2-c2ccc(Oc3ccccc3)cc2)c1` [A252, (E)-N-(3-((6-amino-5-(4-phenoxyphenyl)pyrimidin-4-yl)oxy)phenyl)-4-(dimethylamino)but-2-enamide] as the compound, how does the IC50 (full-length human BTK) read?
Its IC50 is less than 100 nM.

And the IC50 (PBMC)?
The IC50 was less than 1000 nM.

With `CN(C)C/C=C/C(=O)N1CC2(CC(Nc3ncnc(N)c3-c3ccc(Oc4ccccc4)cc3)C2)C1` [A127, (E)-1-(6-((6-amino-5-(4-phenoxyphenyl)pyrimidin-4-yl)amino)-2-azaspiro[3.3]heptan-2-yl)-4-(dimethylamino)but-2-en-1-one] as the compound, how does the IC50 (full-length human BTK) read?
Its IC50 is less than 100 nM.

And the IC50 (PBMC)?
Its IC50 is less than 1000 nM.

— patent US9580449B2, “Compositions and methods for the production of pyrimidine and pyridine compounds with BTK inhibitory activity” (Merck Patent GmbH, priority 2011, dated 2017)
